Source: patent US9140692B1, “Methods of identifying glycopeptides recognized by disease-associated auto-antibodies” (Glycozym, Inc., priority 2010, dated 2015)
Entries after “also recorded” stand apart in the source; their conditions may differ.

Test system: human IgG antibodies (cancer-associated auto-antibodies in serum)
Experiment: Glycopeptide microarray screening of the 96 paired peptide/GalNAc-glycopeptide library with human sera
Assay type: binding
Conditions: serum of newly diagnosed prostate cancer patient #762, 1:25 dilution, labeled anti-human IgG; FIG. 2
Description: A panel of human sera was obtained from CHTN (Cooperative Human Tissue Network) and Asterand Inc., under the guidelines of approved agreements by the providers. Sera obtained were from control individuals (“normal”) (n=31) and from newly diagnosed cancer patients (n=147) with pancreatic, breast, colon, lung, prostate or ovary primary cancers. Briefly, for cancer sera, all blood samples were obtained on or near date of diagnosis, and serum was processed immediately, flash frozen and stored at −70° C. until shipment. Serum samples received from the providers as frozen aliquots generally of 1-2 mL were brought to room temperature, vortexed and distributed into 20-100 μL aliquots in closeable Eppendorf tubes (vWR) (pre-labeled), and immediately frozen and stored at −70° C. until use.
Glycopeptides (20-mers with and without a single GalNAc residue at position 12) and control structures (corresponding unglycosylated peptides) were printed on Corning (Corning, N.Y.), Scienion (Germany) or Schott Nexterion® Slide H or Schott Nexterion® Slide H MPX 16 (Schott AG, Mainz, Germany) by JPT (Germany). Triplicates or quadruplicates of all compounds were printed at optimal concentrations (1-50 μM) or 50× excess relative to scale of synthesis for spot-synthesized glycopeptides printed without purification. After printing, slides were incubated for 1 hour (h) in a humidified hybridization chamber with 70-100% relative humidity and stored until use at 4° C. Unspotted slide areas were blocked for 1 h with 25 mM ethanolamine in 100 mM sodium borate pH 8.5. If an enzyme step was needed either to increase sites of GaLNac attachments in peptides or extend O-glycans to T, STn, core 3 or other structures, addition of the enzyme reaction mixture in 25-35 μL was made in appropriate wells and the slide incubated at 37° C. for 1 h, after which it was washed in PBS/0.05% Tween and then PBS, and then spun dry.
Human sera (usually diluted 1:25), monoclonal antibodies, lectins and the like were added in 25 μL and the slide left at room temperature for 2 h in a moist, humid chamber after which it was washed as above and spun dry (if no superstructure). Secondary antibodies were added at appropriate concentrations (for human sera, usually 1:1500 for anti-human IgG with a Cy3 chromophore). In some cases, for some controls, lectin-Cy3 was used directly as final step. The final step was washing as above, with a brief de-ionized water wash and the slide spun dry for scanning Analysis was made on a GenePix 4200AL Scanner at PMT 400 and power mode 10-50. Data were analyzed and plotted using Microsoft Excel.
Glycopeptides (20-mers with and without a single GalNAc residue at position 12) were printed in triplicates (horizontal) on Scineon 16-well slides by JPT (Germany) and bound human IgG antibodies detected by a labeled secondary anti-human IgG antibody. FIG. 2 illustrates examples of reactivities of serum (1:25 dilution) from a newly diagnosed prostate cancer patient (#762 in Panel A) and a normal control serum from a healthy individual (#174 in Panel B) on the library of 96 paired peptides/GalNAc-glycopeptides as designated in Table II. Candidate cancer-associated IgG antibodies identified in the cancer serum directed to GalNAc glycopeptide epitopes are indicated by open circles labeled 20/21, 62/63, and 86/87 for the paired peptide and GalNAc glycopeptides, respectively. […]
FIG. 4 illustrates results of screening 147 cancer sera and 31 normal sera on the glycopeptide pair #62/63. FIG. 5 illustrates results of screening 147 cancer sera and 31 normal sera on the glycopeptide pair #86/87.

| Substance | reactivity of serum IgG antibodies with printed peptide/GalNAc-glycopeptide |
| --- | --- |
| SESFPHPGFNMSLLENHTRQ [Peptide 87, derived from KLK1] | specifically reacting; also recorded: labels |
| SHHSDESDELVTDFPTDLPA [Peptide 21, derived from SPP1] | specifically reacting; also recorded: labels |
| TPTPKEKPEAGTYSVNNGND [Peptide 62, derived from LAMP2] | do not react; also recorded: not the corresponding peptide |
| SHHSDESDELVTDFPTDLPA [Peptide 20, derived from SPP1] | do not react; also recorded: not the corresponding peptide |
| TPTPKEKPEAGTYSVNNGND [Peptide 63, derived from LAMP2] | specifically reacting; also recorded: labels |
| SESFPHPGFNMSLLENHTRQ [Peptide 86, derived from KLK1] | do not react; also recorded: not the corresponding peptide |

Test system: human IgG antibodies from cancer patients
Experiment: Microarray screening of the larger GalNAc O-glycopeptide library (Table III) with human cancer and control sera
Assay type: binding
Conditions: FIG. 6; sera at 1:20 dilution, anti-human-IgG Cy3
Description: FIG. 6A: glycopeptides 889 (SEQ ID NO: 134), 275a (SEQ ID NO: 86), and 585 (SEQ ID NO: 109). FIG. 6B: glycopeptides 893 (SEQ ID NO: 135), 931-C3 (SEQ ID NO: 146), and 852-C3 (SEQ ID NO: 145). FIG. 6C: gycopeptides 873 (SEQ ID NO: 132) and 690 (SEQ ID NO: 116). The following human sera were used for FIGS. 6A and 6B: 32 ovarian cancer (O), 38 breast cancer (B), 54 colon cancer (C), 17 lung cancer (L), as well as 145 normal sera (N) (Asterand Corp). The following sera were used for FIG. 6C: 32 ovarian cancer (O), 38 breast cancer […], 54 colon cancer (C), 42 lung cancer (L), 52 pancreactic cancer (Pn), 35 prostatic cancer (Pr), 8 inflammatory disease (In), 8 benign controls (Bn), and 145 healthy controls (N). Sera were screened at 1:20 dilution. Anti-human-IgG conjugated to Cy3 was used as the secondary detection unit and slides were scanned with a GenePix 4200AL Microarray Scanner.
A larger library of GalNAc O-glycopeptides designed with GalNAc linked to serine or threonine at position 12 in 20-mer peptides was produced as described in Example 1. Peptides were selected among cell membrane and secreted human proteins that contain serine and threonine residues that are predicted to be O-glycosylated by the NetOGlyc algorithm (Julenius et al. 2005). A total of 960 GalNAc glycopeptides were synthesized at 0.5 mg scale (Sigma) and printed on microarray hydrogel slides (Schott Nexterion) as described in Example 1. Slides were reacted with human cancer sera (ovarian, breast, colon, lung, pancreas, prostate, 235 total sera) and control sera (145 healthy, 20 inflammatory, 20 benign tumor). Glycopeptides preferentially reactive with human IgG antibodies from cancer patients compared to controls were selected for resynthesis at 5 mg scale with amidated C-terminus (New England Peptide (Gardner, Mass.) (Table III). Resynthesized glycopeptides were reprinted on microarray slides at 50 μM and reacted with human cancer sera (Total 286 sera: 32 ovarian cancer (O), 38 breast cancer (B), 54 colon cancer (C), 17 lung cancer (L), and 145 age and sex matched control normal sera as described in Example 1. Table III lists glycopeptides exclusively or preferentially reactive with human IgG from cancer patients compared to controls and examples of reactivities are shown in FIG. 6.
Since IgG antibodies reactive with glycopeptides epitopes recognize both the peptide sequence in close proximity to the O-glycan (i.e., one to five or even eighth residues N- and C-terminal of the O-glycan) as well as the O-glycan structure, it is clear that different glycoforms of one glycopeptide may be recognized by different IgG antibodies and these antibodies may be found in different cancer patients. In this Example, GalNAc-glycopeptides from MUC1 and MUC4 were also produced as the core 3 GlcNAcβ1-3GalNAcα1-O-Ser/Thr glycoform with a recombinant core 3 synthase as described in Example 1.

| Substance | reactivity with IgG from newly diagnosed cancer patients compared to normal control sera |
| --- | --- |
| H2N-HDVETQFNQYKTEAASRYNL-amide (H-HDVETQFNQYKTEAASRYNL-NH2; also: O-GalNAc glycopeptide, sites not given here) [Peptide 889] | reactive with IgG from newly diagnosed cancer patients |
| H2N-ASRYNLTISDVSVSDVPFPF-amide (H-ASRYNLTISDVSVSDVPFPF-NH2; also: O-GalNAc glycopeptide, sites not given here) [Peptide 893] | reactive with IgG from newly diagnosed cancer patients |
| H2N-SLASQATDIFST[GlcNAc] VPPTPPSI-amide [Peptide 931-C3] | reactive with IgG from newly diagnosed cancer patients |
| H2N-TKTDASSTHHSTVPPLTSSN-amide (H-TKTDASSTHHSTVPPLTSSN-NH2; also: O-GalNAc glycopeptide, sites not given here) [Peptide 873] | reactive with IgG from newly diagnosed cancer patients |
| H2N-PGTSTTPSQPNSAGVQDTEM-amide (H-PGTSTTPSQPNSAGVQDTEM-NH2; also: O-GalNAc glycopeptide, sites not given here) [Peptide 690] | reactive with IgG from newly diagnosed cancer patients |
| H2N-LAKMYYSAVEPTKDIFTGLI-amide (H-LAKMYYSAVEPTKDIFTGLI-NH2; also: O-GalNAc glycopeptide, sites not given here) [Peptide 275a] | reactive with IgG from newly diagnosed cancer patients |
| H2N-VPVTRPALGSTT[GlcNAc] PPAHDVTS-amide (H-VPVTRPALGSTTPPAHDVTS-NH2; not fully specified (residue 12)) [Peptide 852-C3] | reactive with IgG from newly diagnosed cancer patients |
| H2N-TDCGGPKDHPLTCDDPRFQA-amide (H-TDCGGPKDHPLTCDDPRFQA-NH2; cysteine pairing not given here; also: O-GalNAc glycopeptide, site not shown) [Peptide 585] | reactive with IgG from newly diagnosed cancer patients |

Same assay, conditions: resynthesized glycopeptides printed at 50 μM; cancer sera and 145 control normal sera

| Substance | reactivity with human IgG from cancer patients compared to controls |
| --- | --- |
| H2N-SLASQATDIFST[GlcNAc] VPPTPPSI-amide [Peptide 931-C3] | exclusively recognized by IgG antibodies in sera from cancer patients |
| H2N-VPVTRPALGSTT[GlcNAc] PPAHDVTS-amide (H-VPVTRPALGSTTPPAHDVTS-NH2; not fully specified (residue 12)) [Peptide 852-C3] | exclusively recognized by IgG antibodies in sera from cancer patients |
